{"source": "patent US8263593B2", "about": "“Therapeutic compounds” (Allergan, Inc., priority 2008, dated 2012)", "test_system": "lashes and adjacent hairs", "experiment": "Observation of lashes and adjacent hairs in glaucoma patients treated in one eye", "format": "in vivo", "source_text": "In the course of treating patients having glaucoma, treatment may only be appropriate in one eye. […] The lash appearance on the lids of the treated eyes would have appeared quite attractive if it represented a bilateral phenomenon. As a result of its asymmetric nature, the long lashes on one side could be construed as disturbing from a cosmetic standpoint. A systemic examination was preformed as a result of the asymmetric phenomenon. It soon became apparent that this altered appearance was not an isolated finding. […] Definite differences could be identified to varying degrees in the lashes and adjacent hairs of all patients who were taking the drug on a unilateral basis for longer than 6 months.\nThe changes in the lashes were apparent on gross inspection in several patients once attention was focused on the issue. In those with light colored hair and lashes, the differences were only seen easily with the aid of the high magnification and lighting capabilities of the slit lamp biomicroscope. In the course of glaucoma follow-up examination, attention is generally immediately focused on the eye itself. As a result of the high power magnification needed only one eye is seen at a time and the eye is seen at a high enough power that the lashes are not in focus. […]", "data": [{"compound": "CCNC(=O)CCC/C=C\\C[C@@H]1[C@@H](/C=C/[C@@H](O)CCc2ccccc2)[C@H](O)C[C@@H]1O", "note": "[bimatoprost]", "values": [{"measurement": "lash appearance in the treated eye versus the non-treated eye", "setting": "glaucoma patient treated in one eye only", "value": "longer, thicker, and fuller"}, {"measurement": "hair growth in treated versus control areas, multiple parameters of hair appearance", "setting": "many subjects, unilateral treatment", "value": "hair growth is stimulated"}]}]}
